Assay results as given in US5140009A (Tap Pharmaceuticals, Inc., priority 1990, dated 1992).
Numbered stars: 1 amine (or outer) side, 2 acyl side, 3 side chain; on linkers, the order of the positions; unused ones are H or OH. Square brackets hold non-standard residues; d marks the D form. Peptide text beside a SMILES is read from it. * marks the point of attachment. Propanoyl(3-indol-3-yl) = O=C(CCc1c[nH]c2ccccc12)*; Propanoyl(3-(4-F-phenyl)) = O=C(CCc1ccc(F)cc1)*; Propanoyl(3-(4-MeO-Ph)) = COc1ccc(CCC(=O)*)cc1; Propanoyl(3-(4-Cl-Ph)) = O=C(CCc1ccc(Cl)cc1)*; d1Nal = N[C@H](Cc1cccc2ccccc12)C(=O)O; d2Nal = N[C@H](Cc1ccc2ccccc2c1)C(=O)O; d(hCit) = NC(=O)NCCCC[C@@H](N)C(=O)O; Lys(iPr) = CC(C)NCCCC[C@H](N)C(=O)O; NMeY = CN[C@@H](Cc1ccc(O)cc1)C(=O)O; dBta = N[C@H](Cc1csc2ccccc12)C(=O)O; d3Pal = N[C@H](Cc1cccnc1)C(=O)O; d2Thi = N[C@H](Cc1cccs1)C(=O)O; dNMeL = CN[C@H](CC(C)C)C(=O)O; Nicotinoyl = O=C(c1cccnc1)*; Morpholide = C1CN(*)CCO1; X6 = O=C(CCc1ccccc1F)*; CO = O=C([*:1])[*:2]; Bn = c1ccc(C*)cc1

What follows are compounds tested against T1, LHRH receptors (Rattus norvegicus, UniProt P30969) (assay: Receptor Binding (radioligand receptor binding assay)). Details: Receptor Binding pkI, table 4; rat pituitary membranes, radioligand 50 pM, 2 hours at 4° C.
T1 construct: Pituitary membranes containing LHRH receptors are prepared in batches from quick-frozen rat pituitaries; tissue Hilltop Labs; host or cells: rat pituitary membranes
T1 sequence (P30969 1-327): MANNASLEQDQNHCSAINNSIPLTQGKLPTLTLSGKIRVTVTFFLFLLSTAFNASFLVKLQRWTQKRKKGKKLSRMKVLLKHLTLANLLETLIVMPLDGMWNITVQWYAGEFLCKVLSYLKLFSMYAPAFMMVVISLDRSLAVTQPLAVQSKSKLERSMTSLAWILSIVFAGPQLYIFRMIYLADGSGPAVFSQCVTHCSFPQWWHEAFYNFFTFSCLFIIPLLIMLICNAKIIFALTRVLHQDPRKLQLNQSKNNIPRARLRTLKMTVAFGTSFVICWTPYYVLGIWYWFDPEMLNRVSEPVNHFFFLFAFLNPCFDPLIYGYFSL

Question: With `CC(C)C[C@H](NC(=O)[C@@H](CCCCN)NC(=O)[C@H](Cc1ccc(O)cc1)NC(=O)[C@H](COCc1ccccc1)NC(=O)[C@@H](Cc1cccs1)NC(=O)CCc1ccc(Cl)cc1)C(=O)N[C@@H](CCCNC(=N)N)C(=O)N1CCC[C@H]1C(=O)N[C@H](C)C(N)=O` [Compound 167, (3-10)[N-(3-(4-Chlorophenyl)propionyl)-D-Thia^3 -Ser(O-Bzl)^4 -D-Lys^6 -D-Ala^10]LHRH] ({Propanoyl(3-(4-Cl-Ph))}-[d2Thi]S(Bn)Y[dK]LRP[dA]-NH2) as the compound, how does the Ki read?
Answer: The Ki was 0.457 nM.

Same assay, conditions: table 3; rat pituitary membranes, radioiodinated [D-Leu^6 -des Gly^10 ]-LHRH ethyl amide 50 pM, 2 hours at 4° C.; read-out: Receptor Binding pkI (converted)

Question: With `CCNC(=O)[C@@H]1CCCN1C(=O)[C@H](CCCNC(=N)N)NC(=O)[C@H](CC(C)C)NC(=O)[C@@H](CCCCNC(=O)c1cccnc1)NC(=O)[C@H](Cc1ccc(O)cc1)NC(=O)[C@H](CO)NC(=O)CCc1c[nH]c2ccccc12` [Compound 52] ({Propanoyl(3-indol-3-yl)}-SY[dK](Nicotinoyl)LRP-NHEt) as the compound, how does the Ki read?
Answer: Its Ki is 21.9 nM.

Question: For `CCNC(=O)[C@@H]1CCCN1C(=O)[C@H](CCCNC(=N)N)NC(=O)[C@H](CC(C)C)NC(=O)[C@@H](Cc1c[nH]c2ccccc12)NC(=O)[C@H](Cc1ccc(O)cc1)NC(=O)[C@H](CO)NC(=O)C(Cc1cccc2ccccc12)NC(C)=O` (single isomer, unassigned) [Compound 83, (3-9) [N-Ac-1-Nal^3 -D-Trp^6 -Pro^9 NHEt]LHRH], which Ki is on record?
Answer: Its Ki is 0.123 nM.

Question: How did the Ki turn out when `CCNC(=O)[C@@H]1CCCN1C(=O)[C@H](CCCNC(=N)N)NC(=O)[C@H](CC(C)C)NC(=O)[C@@H](Cc1c[nH]c2ccccc12)NC(=O)[C@H](Cc1ccc(O)cc1)N(C)C(=O)[C@H](CO)NC(=O)[C@H](Cc1c[nH]c2ccccc12)NC(=O)[C@H](Cc1ccccc1)NC(=O)N1CCOCC1` [Compound 114, (2-9)[N-(N-alpha-Morpholinocarbonyl)-Phe^2 -N-Me-Tyr^5 -D-Trp^6-Pro^9 -NHEt]LHRH] ({Morpholide-CO}-FWS[NMeY][dW]LRP-NHEt) was run?
Answer: The Ki was 0.00575 nM.

Question: Which Ki does the source give for `CC(C)C[C@H](NC(=O)[C@@H](Cc1ccc2ccccc2c1)NC(=O)[C@H](Cc1ccc(O)cc1)NC(=O)[C@H](CO)NC(=O)CCc1c[nH]c2ccccc12)C(=O)N[C@@H](CCCNC(=N)N)C(=O)N1CCC[C@H]1C(=O)N[C@H](C)C(N)=O` [Compound 56, N-(3-(3-Indole)propionyl)-Ser-Tyr-D-2-Nal-Leu-Arg-Pro-D-AlaNH2] ({Propanoyl(3-indol-3-yl)}-SY[d2Nal]LRP[dA]-NH2) here?
Answer: The Ki was 0.646 nM.

Question: `CCNC(=O)[C@@H]1CCCN1C(=O)[C@H](CCCNC(=N)N)NC(=O)[C@H](CC(C)C)NC(=O)[C@@H](Cc1c[nH]c2ccccc12)NC(=O)[C@H](Cc1ccc(O)cc1)NC(=O)[C@H](CO)NC(=O)[C@H](Cc1c[nH]c2ccccc12)NC(=O)CCc1ccccc1F` [Compound 88, (3-9)[N-(3-(2-Fluorophenyl)propionyl) -Trp^3 -D-Trp^6 -Pro^9 NHEt]LHRH] (X6-WSY[dW]LRP-NHEt) was tested. Which Ki did it give?
Answer: Its Ki is 0.0575 nM.

Question: How did the Ki turn out when `CCNC(=O)[C@@H]1CCCN1C(=O)[C@H](CCCNC(=N)N)NC(=O)[C@H](CC(C)C)NC(=O)[C@@H](CCCNC(=N)N)NC(=O)[C@H](Cc1ccc(O)cc1)NC(=O)[C@H](CO)NC(=O)[C@H](Cc1c[nH]c2ccccc12)NC(=O)[C@H](Cc1ccccc1)NC(=O)N1CCOCC1` [Compound 60, N-(alpha)-Morpholinocarbonyl-Phe-Trp-Ser-Tyr-D-Arg-Leu-Arg-ProNHEt] ({Morpholide-CO}-FWSY[dR]LRP-NHEt) was run?
Answer: The Ki was 5.25 nM.

Question: How did the Ki turn out when `CCNC(=O)[C@@H]1CCCN1C(=O)[C@H](CCCNC(=N)N)NC(=O)[C@H](CC(C)C)NC(=O)[C@@H](Cc1c[nH]c2ccccc12)NC(=O)[C@H](Cc1ccc(O)cc1)NC(=O)[C@H](CO)NC(=O)[C@H](Cc1c[nH]c2ccccc12)NC(=O)C(CC(=O)N1CCOCC1)Cc1cccc2ccccc12` (single isomer, unassigned) [Compound 130] was run?
Answer: The Ki was 0.275 nM.

Question: Which Ki does the source give for `CCNC(=O)[C@@H]1CCCN1C(=O)[C@H](CCCNC(=N)N)NC(=O)[C@H](CC(C)C)NC(=O)[C@@H](Cc1c[nH]c2ccccc12)NC(=O)[C@H](Cc1ccc(O)cc1)NC(=O)[C@H](CO)NC(=O)CCc1ccc(OC)cc1` [Compound 78, (4-9)[N-(3-(4-Methoxyphenyl)propionyl) -Ser^4 -D-Trp^6 -Pro^9 NHEt]LHRH] ({Propanoyl(3-(4-MeO-Ph))}-SY[dW]LRP-NHEt) here?
Answer: Its Ki is 10.7 nM.

Question: With `CCNC(=O)[C@@H]1CCCN1C(=O)[C@H](CCCNC(=N)N)NC(=O)[C@H](CC(C)C)NC(=O)[C@@H](CC(C)C)N(C)C(=O)[C@H](Cc1ccc(O)cc1)NC(=O)[C@H](CO)NC(=O)CCc1c[nH]c2ccccc12` [Compound 58, N-(3-(3-Indole)propionyl)-Ser-Tyr-D-N-Me-Leu-Leu-Arg-Pro-NHEt] ({Propanoyl(3-indol-3-yl)}-SY[dNMeL]LRP-NHEt) as the compound, how does the Ki read?
Answer: The Ki was 22.4 nM.

Same assay, conditions: table 4; rat pituitary membranes, radioligand 50 pM, 2 hours at 4° C.; read-out: Receptor Binding pkI (converted)

Question: How did the Ki turn out when `CC(C)C[C@H](NC(=O)[C@@H](CCCCN)NC(=O)[C@H](Cc1ccc(O)cc1)N(C)C(=O)[C@H](CO)NC(=O)[C@@H](Cc1csc2ccccc12)NC(=O)CCc1ccc(F)cc1)C(=O)N[C@@H](CCCNC(=N)N)C(=O)N1CCC[C@H]1C(=O)N[C@H](C)C(N)=O` [Compound 177, (3-10)[N-(3-(4-Fluorophenyl)propionyl)-D-3-Bal^3 -NMeTyr^5 -D-Lys^6 -D-Ala^10]LHRH] ({Propanoyl(3-(4-F-phenyl))}-[dBta]S[NMeY][dK]LRP[dA]-NH2) was run?
Answer: The Ki was 0.00589 nM.

Question: How did the Ki turn out when `COc1ccc(C[C@H](NC(=O)[C@H](CO)NC(=O)[C@@H](Cc2cccc3ccccc23)NC(=O)CCc2ccc(F)cc2)C(=O)N[C@H](CCCCNC(=O)c2cccnc2)C(=O)N[C@@H](CC(C)C)C(=O)N[C@@H](CCCCNC(C)C)C(=O)N2CCC[C@H]2C(=O)N[C@H](C)C(N)=O)cc1` [Compound 200, (3-10)[N-(3-(4-Fluorophenyl)propionyl)-D-1-Nal^3 -Tyr^5 (OMe)-D-Lys^6 (N-epsilon-nicotinyl)-Lys^8 (N-epsilon-isopropyl)-D-Ala^10]LHRH] ({Propanoyl(3-(4-F-phenyl))}-[d1Nal]SY(Me)[dK](Nicotinoyl)L[Lys(iPr)]P[dA]-NH2) was run?
Answer: The Ki was 0.00437 nM.

Question: `CC(C)C[C@H](NC(=O)[C@@H](CCCCNC(N)=O)NC(=O)[C@H](Cc1ccc(O)cc1)N(C)C(=O)[C@H](CO)NC(=O)[C@@H](Cc1cccc2ccccc12)NC(=O)CCc1ccc(F)cc1)C(=O)N[C@@H](CCCNC(=N)N)C(=O)N1CCC[C@H]1C(=O)N[C@H](C)C(N)=O` [Compound 178, (3-10)[N-(3-(4-Fluorophenyl)propionyl)-D-1-Nal^3 -NMeTyr^5 -D-Hcit^6 -D-Ala^10]LHRH] ({Propanoyl(3-(4-F-phenyl))}-[d1Nal]S[NMeY][d(hCit)]LRP[dA]-NH2) was tested. Which Ki did it give?
Answer: The Ki was 0.00955 nM.

Question: `CCNC(=O)[C@@H]1CCCN1C(=O)[C@H](CCCNC(=N)N)NC(=O)[C@H](CC(C)C)NC(=O)[C@@H](Cc1c[nH]c2ccccc12)NC(=O)[C@H](Cc1ccc(O)cc1)N(C)C(=O)[C@H](CO)NC(=O)[C@@H](Cc1cccc2ccccc12)NC(=O)CCc1ccc(F)cc1` [Compound 157, (3-9)[N-(3-(4-Fluorophenyl)propionyl)-D -1-Nal^3 -NMeTyr^5 -D-Trp^6 -Pro^9 NHEt]LHRH] ({Propanoyl(3-(4-F-phenyl))}-[d1Nal]S[NMeY][dW]LRP-NHEt) was tested. Which Ki did it give?
Answer: The Ki was 0.0479 nM.

Question: `CC(C)C[C@H](NC(=O)[C@@H](CCCCNC(=O)c1cccnc1)NC(=O)[C@H](Cc1ccc(O)cc1)N(C)C(=O)[C@H](CO)NC(=O)[C@@H](Cc1cccnc1)NC(=O)CCc1ccc(Cl)cc1)C(=O)N[C@@H](CCCCNC(C)C)C(=O)N1CCC[C@H]1C(=O)N[C@H](C)C(N)=O` [Compound 194, (3-10)[N-(3-(4-Chlorophenyl)propionyl)-D-3-Pal^3 -NMeTyr^5 -D-Lys^6 (N-epsilon-nicotinyl)-Lys^8 (N-epsilon-isopropyl)-D-Ala^10]LHRH] ({Propanoyl(3-(4-Cl-Ph))}-[d3Pal]S[NMeY][dK](Nicotinoyl)L[Lys(iPr)]P[dA]-NH2) was tested. Which Ki did it give?
Answer: The Ki was 0.191 nM.

Question: With `CCNC(=O)[C@@H]1CCCN1C(=O)[C@H](CCCN=C(N)N)NC(=O)[C@H](CC(C)C)NC(=O)[C@@H](Cc1ccc(O)cc1)NC(=O)[C@H](Cc1ccc(O)cc1)NC(=O)[C@H](CO)NC(=O)[C@@H](Cc1c[nH]c2ccccc12)NC(=O)CCc1ccc(F)cc1` [Compound 150, (3-9)[N-(3-(4-Fluorophenyl)propionyl) -D-Trp^3 -D-Tyr^6 -Pro^9 NHEt]LHRH] ({Propanoyl(3-(4-F-phenyl))}-[dW]SY[dY]LRP-NHEt) as the compound, how does the Ki read?
Answer: Its Ki is 0.0102 nM.

These compounds were tested on male castrate rats (assay: In vivo LH Inhibiton). Details: table 4, 30 ug/kg subcutaneously by bolus injection, AUC of log (LHt /LHi).
Design: species or system rat
Experimental: (c) In vivo LH Inhibiton. The compound to be tested is administered at 30 ug/kg subcutaneously by bolus injection to male castrate rats and blood samples are collected periodically over 24 hours. The AUC (area under the curve) of the LH suppression data as a function of time is calculated using the formula log (LHt /LHi) wherein LHt is the LH concentration in the blood at time t and LHi is the initial baseline LH concentration in the blood. The AUC values are negative numbers.

Question: `CC(C)C[C@H](NC(=O)[C@@H](CCCCN)NC(=O)[C@H](Cc1ccc(O)cc1)N(C)C(=O)[C@H](CO)NC(=O)[C@@H](Cc1csc2ccccc12)NC(=O)CCc1ccc(F)cc1)C(=O)N[C@@H](CCCNC(=N)N)C(=O)N1CCC[C@H]1C(=O)N[C@H](C)C(N)=O` [Compound 177, (3-10)[N-(3-(4-Fluorophenyl)propionyl)-D-3-Bal^3 -NMeTyr^5 -D-Lys^6 -D-Ala^10]LHRH] ({Propanoyl(3-(4-F-phenyl))}-[dBta]S[NMeY][dK]LRP[dA]-NH2) was tested. Which “AUC (24 hr. after 30 ug/kg)” value did it give?
Answer: The value was -938.

Question: “(3-10)[N-(3-(4-Fluorophenyl)propionyl)-D-Thia^3 -NMeTyr^5 -D-Lys^6 -D-Ala^ ]LHRH [Compound 166]” was tested. Which “AUC (24 hr. after 30 ug/kg)” value did it give?
Answer: The value was -208.

Question: With “(3-10)[N-(3-(4-Fluorophenyl)propionyl)-D-Trp^3 -NMeTyr^5 -D-Lys^6 (N-epsilon-nicotinyl)-D-Ala^10 ]LHRH [Compound 163]” as the compound, how does the “AUC (24 hr. after 30 ug/kg)” value read?
Answer: The value was -361.

Question: How did the “AUC (24 hr. after 30 ug/kg)” value turn out when “(3-10)[N-(3-(4-Fluorophenyl)propionyl)-D-1-Nal^3 -D-Lys^6 (N-epsilon-4-methoxybenzoyl)-Lys^8 (N-epsilon-isopropyl)-D-Ala^10 ]LHRH [Compound 206]” was run?
Answer: Its value is -412.
